Experimental data: US20250034167A1, “HETEROCYCLIC COMPOUNDS AND METHODS OF USE” (AMGEN INC., priority 2021, published 2025)
Read-outs that look alike come from different tables or passages of the source.

Tests used:
[1] = system: Phosphorylation of ERK1/2 in AsPC-1 cells; assay: Phospho-ERK1/2 MSD Assay; format: cell-based
Experimental: Sixteen hours prior to compound treatment, AsPC-1 cells were seeded in 96-well cell culture plates at a density of 25,000 cells/well and incubated at 37° C., 5% CO2. A compound dose-response titration was diluted in growth media, added to appropriate wells of a cell culture plate, and then incubated at 37° C., 5% CO2 for 2 hours.

[2] = target: T1, His-tagged KRAS G12D protein (Homo sapiens, UniProt P01116, G12D)
[3] = target: T1, His-tagged KRAS G12D protein; assay: biochemical
[4] = Homo sapiens, ASPC1, 2 h, read-out: 2 h p-ERK (AsPC-1 cells), IC50, AsPC-1 cells, 2 h compound treatment

T1 sequence (P01116 1-188 isoform P01116-2 G12D): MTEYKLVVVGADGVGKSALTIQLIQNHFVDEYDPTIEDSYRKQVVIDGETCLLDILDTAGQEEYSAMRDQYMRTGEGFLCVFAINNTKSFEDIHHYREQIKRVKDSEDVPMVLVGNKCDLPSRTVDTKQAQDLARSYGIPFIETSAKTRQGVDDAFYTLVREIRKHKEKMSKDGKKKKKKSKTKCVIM

Row | Compound | IC50 ([1]; read-out: 2 h p-ERK (AsPC-1 cells), IC50, AsPC-1 cells, 2 h compound treatment) | IC50 [2] | IC50 [1, 4] | IC50 [3]
1 | CCc1c(F)ccc2cc(O)cc(-c3ncc4c(N5CCCC(C#N)CC5)nc(OC[C@@]56CCCN5C[C@H](F)C6)nc4c3F)c12 (single isomer, unassigned) [Example 55] | 259 nM | 3 nM | – | –
2 | CCc1c(F)ccc2cc(O)cc(-c3ncc4c(N5CCC=CC(O)C5)nc(OC[C@@]56CCCN5C[C@H](F)C6)nc4c3F)c12 (stereo partly drawn) [Example 135, 1-(7-(8-Ethyl-7-fluoro-3-hydroxynaphthalen-1-yl)-8-fluoro-2-(((2R,7aS)-2-fluorotetrahydro-1H-pyrrolizin-7a(5H)-yl)methoxy)pyrido[4,3-d]pyrimidin-4-yl)-2,3,6,7-tetrahydro-1H-azepin-3-ol] | – | – | 81 nM | 1 nM
3 | CCc1c(F)ccc2cc(O)cc(-c3ncc4c(N5CCC[C@@H](C(=O)O)C5)nc(OC[C@@]56CCCN5C[C@H](F)C6)nc4c3F)c12 [Example 138, (R)-1-(7-(8-Ethyl-7-fluoro-3-hydroxynaphthalen-1-yl)-8-fluoro-2-(((2R,7aS)-2-fluorotetrahydro-1H-pyrrolizin-7a(5H)-yl)methoxy)pyrido[4,3-d]pyrimidin-4-yl)piperidine-3-carboxylic acid] | – | – | > 10000 nM | 16 nM
4 | CCc1c(F)ccc2cc(O)cc(-c3ncc4c(N5CCC=CCC5)nc(OC[C@@]56CCCN5C[C@H](F)C6)nc4c3F)c12 [Example 139, 5-Ethyl-6-fluoro-4-(8-fluoro-2-(((2R,7aS)-2-fluorotetrahydro-1H-pyrrolizin-7a(5H)-yl)methoxy)-4-(2,3,6,7-tetrahydro-1H-azepin-1-yl)pyrido[4,3-d]pyrimidin-7-yl)naphthalen-2-ol] | – | – | 116 nM | 5 nM
5 | CCc1c(F)ccc2cc(O)cc(-c3ncc4c(N5CCCC(O)CC5)nc(OC[C@@]56CCCN5C[C@H](F)C6)nc4c3F)c12 (stereo partly drawn) [Example 141, 1-(7-(8-Ethyl-7-fluoro-3-hydroxynaphthalen-1-yl)-8-fluoro-2-(((2R,7aS)-2-fluorotetrahydro-1H-pyrrolizin-7a(5H)-yl)methoxy)pyrido[4,3-d]pyrimidin-4-yl)azepan-4-ol] | – | – | 198 nM | 4 nM
6 | CCc1c(F)ccc2cc(O)cc(-c3ncc4c(N5CC6CCC(C5)C(C#N)C6)nc(OC[C@@]56CCCN5C[C@H](F)C6)nc4c3F)c12 (stereo partly drawn) [Example 147, 3-(7-(8-Ethyl-7-fluoro-3-hydroxynaphthalen-1-yl)-8-fluoro-2-(((2R,7aS)-2-fluorotetrahydro-1H-pyrrolizin-7a(5H)-yl)methoxy)pyrido[4,3-d]pyrimidin-4-yl)-3-azabicyclo[3.2.2]nonane-6-carbonitrile] | – | – | 714 nM | 15 nM
7 | CCc1c(F)ccc2cc(O)cc(-c3ncc4c(N5CCCC(F)(F)CC5)nc(OC[C@@]56CCCN5C[C@H](F)C6)nc4c3F)c12 [Example 149, 4-(4-(4,4-Difluoroazepan-1-yl)-8-fluoro-2-(((2R,7aS)-2-fluorotetrahydro-1H-pyrrolizin-7a(5H)-yl)methoxy)pyrido[4,3-d]pyrimidin-7-yl)-5-ethyl-6-fluoronaphthalen-2-ol] | – | – | 702 nM | 12 nM
8 | CCc1c(F)ccc2cc(O)cc(-c3ncc4c(N5CCC(=O)C(F)(F)C5)nc(OC[C@@]56CCCN5C[C@H](F)C6)nc4c3F)c12 [Example 152, 1-(7-(8-Ethyl-7-fluoro-3-hydroxy-naphthalen-1-yl)-8-fluoro-2-(((2R,7aS)-2-fluorotetrahydro-1H-pyrrolizin-7a(5H)-yl)methoxy)pyrido[4,3-d]pyrimidin-4-yl)-3,3-difluoropiperidin-4-one] | – | – | 2670 nM | 4 nM
9 | CCc1c(F)ccc2cc(O)cc(-c3ncc4c(N5CCCCC(S(N)(=O)=O)C5)nc(OC[C@@]56CCCN5C[C@H](F)C6)nc4c3F)c12 (stereo partly drawn) [Example 158, 1-(7-(8-Ethyl-7-fluoro-3-hydroxy-naphthalen-1-yl)-8-fluoro-2-(((2R,7aS)-2-fluorotetrahydro-1H-pyrrolizin-7a(5H)-yl)methoxy)pyrido[4,3-d]pyrimidin-4-yl)azepane-3-sulfonamide] | – | – | 1420 nM | 2 nM
10 | CCc1c(F)ccc2cc(O)cc(-c3ncc4c(N5CCCC(O)(C(N)=O)C5)nc(OC[C@@]56CCCN5C[C@H](F)C6)nc4c3F)c12 (stereo partly drawn) [Example 159, 1-(7-(8-Ethyl-7-fluoro-3-hydroxy-naphthalen-1-yl)-8-fluoro-2-(((2R,7aS)-2-fluorotetrahydro-1H-pyrrolizin-7a(5H)-yl)methoxy)pyrido[4,3-d]pyrimidin-4-yl)-3-hydroxypiperidine-3-carboxamide] | – | – | 3080 nM | 2 nM
11 | Oc1cc(-c2ncc3c(N4CCCCCC4)nc(OC[C@@]45CCCN4C[C@H](F)C5)nc3c2F)c2c(F)c(F)ccc2c1 [Example 166, 4-(4-(Azepan-1-yl)-8-fluoro-2-(((2R,7aS)-2-fluorotetrahydro-1H-pyrrolizin-7a(5H)-yl)methoxy)pyrido[4,3-d]pyrimidin-7-yl)-5,6-difluoronaphthalen-2-ol] | – | – | 94 nM | 3 nM
12 | C[C@@]1(O)CCCN(c2nc(OC[C@@]34CCCN3C[C@H](F)C4)nc3c(F)c(-c4cc(O)cc5cccc(C6CC6)c45)ncc23)C1 [Example 167, (R)-1-(7-(8-Cyclopropyl-3-hydroxynaphthalen-1-yl)-8-fluoro-2-(((2R,7aS)-2-fluorotetrahydro-1H-pyrrolizin-7a(5H)-yl)methoxy)pyrido[4,3-d]pyrimidin-4-yl)-3-methylpiperidin-3-ol] | – | – | 12 nM | 2 nM
13 | C=CCC1CCCc2cc(O)cc(-c3ncc4c(N5CCC[C@@](C)(O)C5)nc(OC[C@@]56CCCN5C[C@H](F)C6)nc4c3F)c21 (stereo partly drawn) [Example 175, (3R)-1-(7-(8-Allyl-3-hydroxy-5,6,7,8-tetrahydro-naphthalen-1-yl)-8-fluoro-2-(((2R,7aS)-2-fluorotetrahydro-1H-pyrrolizin-7a(5H)-yl)methoxy)pyrido[4,3-d]pyrimidin-4-yl)-3-methyl-piperidin-3-ol] | – | – | 10 nM | 8 nM
14 | CCc1c(F)ccc2cc(O)cc(-c3ncc4c(N5CCC[C@@](C)(O)C5)nc(OCC56CCCN5CCC6)nc4c3F)c12 [Example 179, (R)-1-(7-(8-Ethyl-7-fluoro-3-hydroxynaphthalen-1-yl)-8-fluoro-2-((tetrahydro-1H-pyrrolizin-7a(5H)-yl)methoxy)pyrido[4,3-d]pyrimidin-4-yl)-3-methylpiperidin-3-ol] | – | – | 18 nM | 5 nM

Second part, the compound after the results:

Row | IC50 ([1]; read-out: 2 h p-ERK (AsPC-1 cells), IC50, AsPC-1 cells, 2 h compound treatment) | IC50 [2] | IC50 [1, 4] | IC50 [3] | Compound
15 | – | – | 64 nM | 1 nM | CCc1c(F)ccc2cc(O)cc(-c3ncc4c(N5CCCC[C@@H](O)C5)nc(OC[C@@]56CCCN5C[C@H](F)C6)nc4c3F)c12 [Example 129, (R)-1-(7-(8-Ethyl-7-fluoro-3-hydroxynaphthalen-1-yl)-8-fluoro-2-(((2R,7aS)-2-fluorotetrahydro-1H-pyrrolizin-7a(5H)-yl)methoxy)pyrido[4,3-d]pyrimidin-4-yl)azepan-3-ol]
16 | – | – | 119 nM | 1 nM | CCc1c(F)ccc2cc(O)cc(-c3ncc4c(N5CCCC[C@@H](NC(=O)C(F)F)C5)nc(OC[C@@]56CCCN5C[C@H](F)C6)nc4c3F)c12 [Example 132, N-((R)-1-(7-(8-Ethyl-7-fluoro-3-hydroxynaphthalen-1-yl)-8-fluoro-2-(((2R,7aS)-2-fluorotetrahydro-1H-pyrrolizin-7a(5H)-yl)methoxy)pyrido[4,3-d]pyrimidin-4-yl)azepan-3-yl)-2,2-difluoroacetamide]
17 | – | – | 661 nM | 2 nM | CCc1c(F)ccc2cc(O)cc(-c3ncc4c(N5CCCC[C@@H](NC(C)=O)C5)nc(OC[C@@]56CCCN5C[C@H](F)C6)nc4c3F)c12 [Example 133, N-((R)-1-(7-(8-Ethyl-7-fluoro-3-hydroxynaphthalen-1-yl)-8-fluoro-2-(((2R,7aS)-2-fluorotetrahydro-1H-pyrrolizin-7a(5H)-yl)methoxy)pyrido[4,3-d]pyrimidin-4-yl)azepan-3-yl)acetamide]
18 | – | – | 81 nM | 3 nM | CCc1c(F)ccc2cc(O)cc(-c3ncc4c(N5C[C@H](N)CC(F)(F)C5)nc(OC[C@@]56CCCN5C[C@H](F)C6)nc4c3F)c12 [Example 140, 4-(4-((R)-5-Amino-3,3-difluoropiperidin-1-yl)-8-fluoro-2-(((2R,7aS)-2-fluorotetrahydro-1H-pyrrolizin-7a(5H)-yl)methoxy)pyrido[4,3-d]pyrimidin-7-yl)-5-ethyl-6-fluoronaphthalen-2-ol]
19 | – | – | > 10000 nM | 62 nM | CCc1c(F)ccc2cc(O)cc(-c3ncc4c(N5CCCC(N)CC5)nc(OC[C@@]56CCCN5C[C@H](F)C6)nc4c3F)c12 (stereo partly drawn) [Example 143, 4-(4-(4-Aminoazepan-1-yl)-8-fluoro-2-(((2R,7aS)-2-fluorotetrahydro-1H-pyrrolizin-7a(5H)-yl)methoxy)pyrido[4,3-d]pyrimidin-7-yl)-5-ethyl-6-fluoronaphthalen-2-ol]
20 | – | – | 1430 nM | 3 nM | CCc1c(F)ccc2cc(O)cc(-c3ncc4c(N5CCC(=O)C(F)(F)CC5)nc(OC[C@@]56CCCN5C[C@H](F)C6)nc4c3F)c12 [Example 150, 1-(7-(8-Ethyl-7-fluoro-3-hydroxy-naphthalen-1-yl)-8-fluoro-2-(((2R,7aS)-2-fluorotetrahydro-1H-pyrrolizin-7a(5H)-yl)methoxy)pyrido[4,3-d]pyrimidin-4-yl)-5,5-difluoroazepan-4-one]
21 | – | – | 1610 nM | 2 nM | CCc1c(F)ccc2cc(O)cc(-c3ncc4c(N5CCC[C@@H](C(N)=O)C5)nc(OC[C@@]56CCCN5C[C@H](F)C6)nc4c3F)c12 [Example 162, (R)-1-(7-(8-Ethyl-7-fluoro-3-hydroxynaphthalen-1-yl)-8-fluoro-2-(((2R,7aS)-2-fluorotetrahydro-1H-pyrrolizin-7a(5H)-yl)methoxy)pyrido[4,3-d]pyrimidin-4-yl)piperidine-3-carboxamide]
